Measured values taken from ChEMBL document CHEMBL4428061, “Effects of 5-O-Ribosylation of Aminoglycosides on Antimicrobial Activity and Selective Perturbation of Bacterial Translation” (J Med Chem, 2016).
Converted amounts (≈) assume the structure as drawn.

Experiments:
Klebsiella pneumoniae [1] = experiment: Antimicrobial activity against aminoglycoside-resistant Klebsiella pneumoniae ATCC BAA-2470 measured after 24 hrs by double-dilution method; format: functional; settings: ATCC BAA-2470, 24 h
[2] = test system: cytosolic eukaryotic translation versus 16S rRNA A-site; experiment: Selectivity ratio, ratio of IC50 for cytosolic eukaryotic translation in rabbit reticulocyte S30 extract to IC50 for 16S rRNA A-site in Escherichia coli S30 extract; format: toxicity; settings: read-out: Ratio IC50
[3] = Inhibition of cytosolic eukaryotic translation in rabbit reticulocyte S30 extract measured after 60 mins by coupled transcription/translation-based luciferase reporter gene assay; design: species or system Oryctolagus cuniculus
Pseudomonas aeruginosa [4] = experiment: Antimicrobial activity against Pseudomonas aeruginosa ATCC 47085 measured after 24 hrs by double-dilution method; format: functional; settings: ATCC 47085, 24 h
Haemophilus influenzae [5] = experiment: Antimicrobial activity against Haemophilus influenzae ATCC 49247 measured after 24 hrs by double-dilution method; format: functional; settings: ATCC 49247, 24 h
Haemophilus influenzae [6] = experiment: Antimicrobial activity against Haemophilus influenzae ATCC 10211 measured after 24 hrs by double-dilution method; format: functional; settings: ATCC 10211, 24 h
Klebsiella pneumoniae [7] = experiment: Antimicrobial activity against Klebsiella pneumoniae ATCC 10031 measured after 24 hrs by double-dilution method; format: functional; settings: ATCC 10031, 24 h
Burkholderia cepacia = experiment: Antimicrobial activity against aminoglycoside-resistant Burkholderia cepacia ATCC 25416 measured after 24 hrs by double-dilution method; format: functional; settings: ATCC 25416, 24 h
Klebsiella pneumoniae [8] = experiment: Antimicrobial activity against Klebsiella pneumoniae ATCC 13883 measured after 24 hrs by double-dilution method; format: functional; settings: ATCC 13883, 24 h
Escherichia coli [9] = experiment: Antimicrobial activity against Escherichia coli ATCC 25922 measured after 24 hrs by double-dilution method; format: functional; settings: ATCC 25922, 24 h
Escherichia coli [10] = experiment: Antimicrobial activity against aminoglycoside-resistant Escherichia coli ATCC BAA-2452 measured after 24 hrs by double-dilution method; format: functional; settings: ATCC BAA-2452, 24 h
Ribosomal RNA A-site = experiment: Binding affinity to 16S rRNA A-site in Escherichia coli S30 extract assessed as inhibition of translation measured after 30 mins by coupled transcription/translation-based luciferase reporter gene assay; format: nucleic-acid assay
Pseudomonas aeruginosa [11] = experiment: Antimicrobial activity against Pseudomonas aeruginosa ATCC 27853 measured after 24 hrs by double-dilution method; format: functional; settings: ATCC 27853, 24 h
Acinetobacter baumannii = experiment: Antimicrobial activity against Acinetobacter baumannii ATCC 19606 measured after 24 hrs by double-dilution method; format: functional; settings: ATCC 19606 = CIP 70.34 = JCM 6841, 24 h
[12] = Acute toxicity in iv dosed rat; format: organism-based; settings: in vivo

Row | SMILES | MIC (Klebsiella pneumoniae [1]) | selectivity ratio [2] | IC50 [3] | MIC (Pseudomonas aeruginosa [4]) | MIC (Haemophilus influenzae [5]) | MIC (Haemophilus influenzae [6]) | MIC (Klebsiella pneumoniae [7]) | MIC (Burkholderia cepacia) | MIC (Klebsiella pneumoniae [8]) | MIC (Escherichia coli [9]) | MIC (Escherichia coli [10]) | IC50 (Ribosomal RNA A-site) | MIC (Pseudomonas aeruginosa [11]) | MIC (Acinetobacter baumannii) | LD50 [12]
1 | NC[C@H]1O[C@H](O[C@H]2[C@H](O[C@@H]3O[C@H](CO)[C@@H](O)[C@H]3O)[C@@H](O[C@H]3O[C@H](CO)[C@@H](O)[C@H](N)[C@H]3O)[C@H](N)C[C@@H]2N)[C@H](N)C[C@@H]1O | > 32 µg/mL | 614 | 49.1 µM | 2 µg/mL (≈ 3.34 µM) | 8 µg/mL (≈ 13.3 µM) | 8 µg/mL (≈ 13.3 µM) | 2 µg/mL (≈ 3.34 µM) | > 32 µg/mL | 2 µg/mL (≈ 3.34 µM) | 4 µg/mL (≈ 6.67 µM) | > 32 µg/mL | 0.08 µM | 4 µg/mL (≈ 6.67 µM) | 32 µg/mL (≈ 53.4 µM) | –
2 | NC[C@H]1O[C@H](O[C@H]2[C@H](O)[C@@H](O)[C@H](N)C[C@@H]2N)[C@H](N)C[C@@H]1O | > 32 µg/mL | 282 | 121 µM | > 32 µg/mL | > 32 µg/mL | > 32 µg/mL | > 32 µg/mL | > 32 µg/mL | > 32 µg/mL | 16 µg/mL (≈ 52.2 µM) | > 32 µg/mL | 0.43 µM | > 32 µg/mL | > 32 µg/mL | –
3 | NC[C@H]1O[C@H](O[C@H]2[C@H](O)[C@@H](O[C@H]3O[C@H](CO)[C@@H](O)[C@H](N)[C@H]3O)[C@H](N)C[C@@H]2N)[C@H](N)[C@@H](O)[C@@H]1O [BEKANAMYCIN] | > 32 µg/mL | 722 | 28.9 µM | > 32 µg/mL | 4 µg/mL (≈ 8.27 µM) | 2 µg/mL (≈ 4.14 µM) | 1 µg/mL (≈ 2.07 µM) | > 32 µg/mL | 1 µg/mL (≈ 2.07 µM) | 4 µg/mL (≈ 8.27 µM) | > 32 µg/mL | 0.04 µM | > 32 µg/mL | 4 µg/mL (≈ 8.27 µM) | –
4 | NC[C@H]1O[C@H](O[C@H]2[C@H](O[C@@H]3O[C@H](CO)[C@@H](O)[C@H]3O)[C@@H](O)[C@H](N)C[C@@H]2N)[C@H](N)[C@@H](O)[C@@H]1O [RIBOSTAMYCIN] | > 32 µg/mL | 1290 | 116 µM | > 32 µg/mL | 8 µg/mL (≈ 17.6 µM) | 8 µg/mL (≈ 17.6 µM) | 8 µg/mL (≈ 17.6 µM) | > 32 µg/mL | 8 µg/mL (≈ 17.6 µM) | 4 µg/mL (≈ 8.8 µM) | > 32 µg/mL | 0.09 µM | > 32 µg/mL | 16 µg/mL (≈ 35.2 µM) | –
5 | NC[C@H]1O[C@H](O[C@H]2[C@H](O)[C@@H](O)[C@H](N)C[C@@H]2N)[C@H](N)[C@@H](O)[C@@H]1O [NEAMINE] | > 32 µg/mL | 215 | 99 µM | > 32 µg/mL | 32 µg/mL (≈ 99.3 µM) | 32 µg/mL (≈ 99.3 µM) | 16 µg/mL (≈ 49.6 µM) | > 32 µg/mL | 16 µg/mL (≈ 49.6 µM) | 16 µg/mL (≈ 49.6 µM) | > 32 µg/mL | 0.46 µM | > 32 µg/mL | > 32 µg/mL | 121 to 129 mg/kg
6 | NC[C@H]1O[C@H](O[C@H]2[C@H](O[C@@H]3O[C@H](CO)[C@@H](O)[C@H]3O)[C@@H](O)[C@H](N)C[C@@H]2N)[C@H](N)C[C@@H]1O | > 32 µg/mL | 1230 | 135 µM | 4 µg/mL (≈ 9.12 µM) | 4 µg/mL (≈ 9.12 µM) | 4 µg/mL (≈ 9.12 µM) | 4 µg/mL (≈ 9.12 µM) | > 32 µg/mL | 8 µg/mL (≈ 18.2 µM) | 2 µg/mL (≈ 4.56 µM) | > 32 µg/mL | 0.11 µM | 4 µg/mL (≈ 9.12 µM) | 32 µg/mL (≈ 73 µM) | –
7 | NC[C@H]1O[C@H](O[C@H]2[C@H](O)[C@@H](O[C@H]3O[C@H](CO)[C@@H](O)[C@H](N)[C@H]3O)[C@H](N)C[C@@H]2N)[C@H](N)C[C@@H]1O [TOBRAMYCIN] | > 32 µg/mL | 605 | 42.3 µM | 1 µg/mL (≈ 2.14 µM) | 4 µg/mL (≈ 8.56 µM) | 4 µg/mL (≈ 8.56 µM) | 1 µg/mL (≈ 2.14 µM) | > 32 µg/mL | 1 µg/mL (≈ 2.14 µM) | 2 µg/mL (≈ 4.28 µM) | > 32 µg/mL | 0.07 µM | 1 µg/mL (≈ 2.14 µM) | 2 µg/mL (≈ 4.28 µM) | –
8 | NC[C@H]1O[C@H](O[C@H]2[C@H](O[C@@H]3O[C@H](CO)[C@@H](O)[C@H]3O)[C@@H](O[C@H]3O[C@H](CO)[C@@H](O)[C@H](N)[C@H]3O)[C@H](N)C[C@@H]2N)[C@H](N)[C@@H](O)[C@@H]1O | > 32 µg/mL | 1460 | 43.8 µM | > 32 µg/mL | 8 µg/mL (≈ 13 µM) | 8 µg/mL (≈ 13 µM) | 4 µg/mL (≈ 6.5 µM) | > 32 µg/mL | 4 µg/mL (≈ 6.5 µM) | 4 µg/mL (≈ 6.5 µM) | > 32 µg/mL | 0.03 µM | > 32 µg/mL | > 32 µg/mL | –
9 | NCC[C@H](O)C(=O)N[C@@H]1C[C@H](N)[C@@H](O[C@H]2O[C@H](CN)[C@@H](O)[C@H](O)[C@H]2O)[C@H](O[C@@H]2O[C@H](CO)[C@@H](O)[C@H]2O)[C@H]1O[C@H]1O[C@H](CO)[C@@H](O)[C@H](N)[C@H]1O | > 32 µg/mL | 30 | 193 µM | > 32 µg/mL | > 32 µg/mL | > 32 µg/mL | > 32 µg/mL | > 32 µg/mL | > 32 µg/mL | > 32 µg/mL | > 32 µg/mL | 6.44 µM | > 32 µg/mL | > 32 µg/mL | –
10 | NC[C@H]1O[C@H](O[C@H]2[C@H](O)[C@@H](O[C@H]3O[C@H](CO)[C@@H](O)[C@H](N)[C@H]3O)[C@H](N)C[C@@H]2N)[C@H](O)[C@@H](O)[C@@H]1O [KANAMYCIN] | > 32 µg/mL | 1110 | 111 µM | > 32 µg/mL | 8 µg/mL (≈ 16.5 µM) | 8 µg/mL (≈ 16.5 µM) | 4 µg/mL (≈ 8.26 µM) | > 32 µg/mL | 4 µg/mL (≈ 8.26 µM) | 4 µg/mL (≈ 8.26 µM) | > 32 µg/mL | 0.1 µM | > 32 µg/mL | 8 µg/mL (≈ 16.5 µM) | –
11 | NCC[C@H](O)C(=O)N[C@@H]1C[C@H](N)[C@@H](O[C@H]2O[C@H](CN)[C@@H](O)[C@H](O)[C@H]2O)[C@H](O)[C@H]1O[C@H]1O[C@H](CO)[C@@H](O)[C@H](N)[C@H]1O [AMIKACIN] | > 32 µg/mL | 923 | 64.6 µM | 4 µg/mL (≈ 6.83 µM) | 32 µg/mL (≈ 54.6 µM) | 32 µg/mL (≈ 54.6 µM) | 4 µg/mL (≈ 6.83 µM) | > 32 µg/mL | 4 µg/mL (≈ 6.83 µM) | 2 µg/mL (≈ 3.42 µM) | > 32 µg/mL | 0.07 µM | 8 µg/mL (≈ 13.7 µM) | 4 µg/mL (≈ 6.83 µM) | –
